According to US8716236B2, “Inhibitors of IAP” (Genentech, Inc., priority 2012, dated 2014):

Test system: human breast MDA-MB-231•X1 cells
Experiment: Tumor xenograft study
Format: in vivo, mouse
Details: MDA-MB-231•X1 xenograft in female nude mice, iv Qwk
Procedure: All procedures involving animals were performed in accordance with the guidelines of the Genentech Institutional Animal Care and Use Committee. Cancer cells such as Human breast MDA-MB-231, colorectal, Colo205, or NSCLC, Calu6 cancer cells were obtained from American Type Culture Collection (Manassas, Va.). Cells were resuspended in HBSS (Colo205) or the cell suspension was mixed 1:1 with Matrigel (BD Biosciences; MDA-MB-231, Calu6). The cells (1.5×10^7 for MDA-MB-231; 5.0×10^7 for Colo205, Calu6) were then implanted subcutaneously into the right flank of female nude mice (Charles River Laboratories, Hollister, Calif.) aged 6-8 weeks. Tumor volumes were calculated using the mean diameter measured with vernier calipers using the formula v=0.5×a×b^2, were a and b are the largest and smallest perpendicular tumor diameters, respectively. Ten mice with the appropriate mean tumor volume were assigned randomly to each of six groups. The mean tumor volume±the standard error of the mean (SEM) for all six groups was 168±3 mm^3 at the initiation of treatment (Day 0). The mice were observed on each day of the study, and tumor volumes and body weights were measured twice each week.

CN[C@@H](C)C(=O)N[C@H](C(=O)N1CCCC1C(=O)Nc1snnc1-c1ccccc1)C1CCCCC1 (some centres unmarked) [III]
MED: 18.6 mg/kg

CN[C@@H](C)C(=O)N[C@H](C(=O)N1CCC[C@H]1C(=O)Nc1sc(-c2ncco2)nc1-c1ccccc1)C1CCCCC1 [Ia, (S)-1-[(S)-2-cyclohexyl-2-((S)-2-methylamino-propionylamino)-acetyl]-pyrrolidine-2-carboxylic acid (2-oxazol-2-yl-4-phenyl-thiazol-5-yl)-amide]
MED: 3.4 mg/kg
